Columns and labels:
Format in all cases: cell-based
[1] = test system: Fusarium venenatum WTY842-1-11; test: Sensitivity testing of Fusarium venenatum WTY842-1-11 to FdU (plug growth on VNO3RLMT); conditions: 14 days
Description: For a thymidine kinase gene (tk) to be useful as a negatively selectable marker, a fungus must be […] to rather high concentrations of the nucleoside analog 5-fluoro-deoxyuridine (FdU). In order to ascertain the degree of sensitivity of Fusarium venenatum WTY842-1-11 to FdU, a one week old culture of Fusarium venenatum WTY842-1-11 was prepared by plating a colonized agar plug of the strain taken from a 10% glycerol stock, which had been stored at −140° C., onto a VNO3RLMT plate and incubating in a ChexAll Instant Seal Sterilization Pouch (Fisher Scientific, Pittsburgh, Pa., USA) for 7 days at 26-28° C. After 7 days plugs were cut sub-marginally from the one week old culture and placed face down on VNO3RLMT medium supplemented with different concentrations of FdU (0 to 500 μM) (Sigma Chemical Co., St. Louis, Mo., USA) in 6 well plates. The plates were incubated at 26-28° C. in open ZIPLOC® bags (S.C. Johnson Home Storage, Inc., Racine, Wis., USA) for 14 days, after which the extent of growth at each FdU concentration was recorded.

[2] = test system: Fusarium venenatum WTY1449-03-03 (bar+, tk+); test: Growth of spores of bar+, tk+ strain on FdU- and uridine-supplemented VNO3RLMT plates; conditions: 6 days, 28° C.
Description: To this end the bar+, tk+ strain Fusarium venenatum WTY1449-03-03 was revived on VNO3RLMT-BASTA™ plates (as described in Example 1) and induced to produce spores as described in Example 5. After harvesting and washing, the spores were plated (50,000 spores per 14 cm diameter plate) to FdU-supplemented VNO3RLMT plates containing 50 μM FdU and varying concentrations of uridine (0.1-1 mM). These plates were incubated at 28° C. in ChexAll Instant Seal Sterilization Pouches for 6 days, after which they were evaluated for growth.

[3] = test system: Fusarium venenatum EmY1154-46-4.3 (pyrG-deleted); test: Germination efficiency of spores of pyrG-deleted strain on uridine- and FdU-supplemented media
Description: Germination efficiency of spores from the pyrG-deleted Fusarium venenatum strain EmY1154-46-4.3 on uridine- and FdU-supplemented media was tested. Spores of Fusarium venenatum EmY1154-46-4.3 were generated as described in Example 5 using RA medium supplemented with 10 mM uridine. Fifty spores in a volume of 200 μl were aliquoted to each of 45 VNO3RLMT plates (14 cm diameter) supplemented with 0, 25, or 50 μM FdU and 0, 0.01, 0.05, 0.1, or 0.25 mM uridine. Triplicate plates of each combination of FdU and uridine were set up and incubated in ChexAll Instant Seal Sterilization Pouches at 26° C. for 10 days.

[4] = test system: Fusarium venenatum WTY1449-3-3 (tk+); test: Reconstruction experiment, growth on FdU-supplemented minimal media, tk+ strain; conditions: 50 μM FdU
Description: (§1) To determine whether very low uridine concentrations could confer resistance to FdU in a tk+ strain, a reconstruction experiment was performed. The tk+ strain Fusarium venenatum WTY1449-3-3 and the tk− strain Fusarium venenatum WTY1449-9-1 were used. Spores of each strain were induced and plated at 50 spores per plate (Fusarium venenatum WTY1449-9-1) or 50,000 spores per 14 cm diameter plate (Fusarium venenatum WTY1449-3-3). In addition, a combination of WTY1449-3-3 and WTY1449-9-1 spores, […], were mixed and plated. All plates contained VNO3RLMT supplemented with 50 μM FdU. The uridine concentration in the plates was 1, 0.5, 0.25, or 0.1 mM. Each treatment was performed in triplicate.
(§2) Colonies appearing on the plates on which mixtures of tk+ and tk− spores had been plated were sub-cultured to fresh plates of VNO3RLMT medium supplemented with 50 μM FdU (NO uridine). An equivalent number of samples were also sub-cultured from the background growth (3 colonies per mixed plate) to VNO3RLMT+50 μM FdU (No uridine). In addition, colonies and background growth were sub-cultured from pure tk− plates and pure tk+ plates to plates of VNO3RLMT+50 μM FdU (no uridine). […]

[5] = test system: Fusarium venenatum WTY1449-9-1 (tk-); test: Reconstruction experiment, growth on FdU-supplemented minimal media, tk- strain; conditions: 50 μM FdU
Description: as §1, §2

O=c1[nH]c(=O)n([C@H]2C[C@H](O)[C@@H](CO)O2)cc1F [FdU, 5-fluoro-deoxyuridine]
sensitivity (extent of growth) to FdU ([1]; FdU 0 to 500 μM, VNO3RLMT, 26-28° C.): insensitive | FdU concentration at which growth was slightly reduced ([1]; compared to concentrations of 50 μM and below): greater than 100 μM | growth ([2]; 50 μM FdU plus uridine 0.1-1 mM): extensive growth | growth ([2]; 50 μM FdU, without uridine): no growth | spore germination frequency ([3]; 25 and 50 μM FdU, uridine 0.1 mM, 75% in the absence of FdU): approximately 50% | spore germination ([3]; 25 or 50 μM FdU, uridine 0.01 mM, 10 days, 26° C.): could not germinate | growth ([4]; uridine 0.1-1 mM plates): grew as a uniform haze | growth after sub-culture ([4]; uridine-deficient media): could absolutely not grow | growth ([5]; all concentrations of uridine and medium lacking uridine): grew well | growth after sub-culture ([5]; uridine-deficient media): grew normally
